Test results taken from the supplement of paper PMC10307832.

Legend:
Experiment in all cases: relative viability (nuclei count vs DMSO), 5 days (fraction); higher = more cells survive
[1] = compound: CC(C)=CC[C@@H](O)C1=CC(=O)c2c(O)ccc(O)c2C1=O [Shikonin] + N=C(N)NC(=N)NCCc1ccccc1 [Phenformin] (partner 250 µM)
Summary of the method: (§1)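 Lung cancer cell lines were pin-tool dosed in 1536-well plates on the day after seeding, with either a lone drug or a fixed anchor-drug dose plus five library-drug doses (not always all listed) in √10 steps. Nuclei were counted on 4× images after 5 days. Relative viability is the ratio of treated-well to vehicle-well nuclei counts, with each value a median of duplicate plates.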

[2] = compound: CC(C)N(CCCNC(=O)Nc1ccc(C(C)(C)C)cc1)C[C@H]1O[C@@H](n2ccc3c(N)ncnc32)[C@H](O)[C@@H]1O + CS(=O)(=O)CCNCc1ccc(-c2ccc3ncnc(Nc4ccc(OCc5cccc(F)c5)c(Cl)c4)c3c2)o1 [Lapatinib] (partner 2 µM)
Summary of the method: as §1

[3] = compound: CC(C)=CC[C@@H](O)C1=CC(=O)c2c(O)ccc(O)c2C1=O [Shikonin] + O=C(CCCCCCC(=O)Nc1ccccc1)NO [Vorinostat] (partner 1 µM)
Summary of the method: as §1

[4] = compound: CC(C)N(CCCNC(=O)Nc1ccc(C(C)(C)C)cc1)C[C@H]1O[C@@H](n2ccc3c(N)ncnc32)[C@H](O)[C@@H]1O + O=C(CCCCCCC(=O)Nc1ccccc1)NO [Vorinostat] (partner 1 µM)
Summary of the method: as §1

Cell Line	relative viability ([1]; first compound 0.01 µM)	relative viability ([1]; first compound 0.1 µM)	relative viability ([1]; first compound 0.3162 µM)	relative viability ([1]; first compound 1 µM)	relative viability ([2]; first compound 0.08 µM)	relative viability ([2]; first compound 0.253 µM)	relative viability ([2]; first compound 0.8 µM)	relative viability ([2]; first compound 2.53 µM)	relative viability ([2]; first compound 8 µM)	relative viability ([3]; first compound 0.01 µM)	relative viability ([3]; first compound 0.1 µM)	relative viability ([3]; first compound 0.3162 µM)	relative viability ([3]; first compound 1 µM)	relative viability ([4]; first compound 0.08 µM)	relative viability ([4]; first compound 0.253 µM)	relative viability ([4]; first compound 0.8 µM)	relative viability ([4]; first compound 2.53 µM)	relative viability ([4]; first compound 8 µM)
NCI-H1975	0.417	0.431	0.413	0.408	0.752	0.805	0.473	0.752	0.656	0.687	0.785	0.801	0.64	0.748	0.687	0.701	0.658	0.709
CAL-12T	0.612	0.542	0.464	0.55	0.61	0.477	0.572	0.625	0.652	0.842	0.802	0.832	0.583	0.788	0.76	0.965	0.644	0.578
NCI-H1623	0.551	0.601	0.592	0.603														
HCC-44	0.212	0.162	0.226	0.267	1.08	1.11	0.857	1.05	0.959	1.14	1.12	1.13	1.03	1.1	1.26	1.04	1.1	1.01
EKVX	0.213	0.229	0.233	0.243	0.205	0.202	0.185	0.206	0.212	0.634	0.711	0.831	0.925	0.64	0.772	0.705	0.62	0.705
NCI-H1651	0.381	0.377	0.281	0.349	0.724	0.727	0.586	0.779	0.93	0.553	0.617	0.57	0.636	0.543	0.542	0.504	0.577	0.576
NCI-H1944	0.198	0.189	0.209	0.205	0.764	0.88	0.652	0.847	0.795	0.521	0.521	0.673	0.55	0.508	0.48	0.484	0.637	0.546
NCI-H1703					0.956	1.06	0.823	1.61	0.892									
Calu-6					1.05	1.09	1.09	1.12	1.09									
EBC-1					0.206	0.196	0.212	0.183	0.206									
NCI-H1993	0.504	0.579	0.555	0.499	0.857	0.734	0.769	0.819	0.775	0.72	0.773	1.02	0.806	0.663		0.661	0.748	0.818
A-427	0.327	0.418	0.316	0.398	1.01	0.99	1.05	1.04	1	0.862	0.938	0.93	0.931	0.839	0.912	0.875	0.901	0.9
NCI-H2405	0.391	0.398	0.427	0.396	1.14		0.811	1.13	1.09	1.11	1.12	1.03	1.11	1.06	0.969	0.928	1.07	0.92
NCI-H1355	0.438	0.483	0.46	0.476	0.94	0.975		1	0.857	0.65	0.623	0.627	0.604	0.592	0.632	0.529	0.642	0.575
NCI-H358	0.289	0.387	0.329	0.37	0.433	0.443	0.427	0.357	0.393	0.999	0.67	0.856	0.573	0.725	0.629	0.721	0.714	0.613
SK-LU-1	0.522	0.648	0.596	0.524	0.892	0.887	0.989	1.13	0.748	0.844	0.878	0.853	0.704	0.742	0.775	0.87	0.87	0.736
NCI-H23	0.864	0.812	0.849	0.717	1		1.22	1.21	0.955	0.611	0.75	0.59	0.625	0.582		0.557	0.639	0.549
HOP-62	0.762	0.694	0.744	0.723	1.02	0.797	0.858	0.958	0.764	0.663	0.667	0.739	0.558	0.711	0.555	0.445	0.58	0.458
HARA	0.431	0.707	0.538	0.491	0.637	0.679	0.429	0.498	0.568	0.546	0.51	0.468	0.605	0.559	0.511	0.529	0.496	0.475
PC-3 [JPC-3]	0.488	0.231	0.477	0.428	0.433	0.478	0.419	0.467	0.462	0.845	0.792	0.781	1.3	0.813	0.761		0.741	0.695
NCI-H1755	0.696	0.668	0.659	0.55	1.02	1.06	0.841	0.979	0.944	0.637	0.807	0.888	0.665	0.769	0.74	0.666	0.756	0.723
